This assay concerns the target T1, Recombinant Human SSAO/VAP-1/AOC3 (Homo sapiens, UniProt Q16853).
T1 construct: purchased R&D systems 3957-AO
T1 sequence (Q16853 1-763): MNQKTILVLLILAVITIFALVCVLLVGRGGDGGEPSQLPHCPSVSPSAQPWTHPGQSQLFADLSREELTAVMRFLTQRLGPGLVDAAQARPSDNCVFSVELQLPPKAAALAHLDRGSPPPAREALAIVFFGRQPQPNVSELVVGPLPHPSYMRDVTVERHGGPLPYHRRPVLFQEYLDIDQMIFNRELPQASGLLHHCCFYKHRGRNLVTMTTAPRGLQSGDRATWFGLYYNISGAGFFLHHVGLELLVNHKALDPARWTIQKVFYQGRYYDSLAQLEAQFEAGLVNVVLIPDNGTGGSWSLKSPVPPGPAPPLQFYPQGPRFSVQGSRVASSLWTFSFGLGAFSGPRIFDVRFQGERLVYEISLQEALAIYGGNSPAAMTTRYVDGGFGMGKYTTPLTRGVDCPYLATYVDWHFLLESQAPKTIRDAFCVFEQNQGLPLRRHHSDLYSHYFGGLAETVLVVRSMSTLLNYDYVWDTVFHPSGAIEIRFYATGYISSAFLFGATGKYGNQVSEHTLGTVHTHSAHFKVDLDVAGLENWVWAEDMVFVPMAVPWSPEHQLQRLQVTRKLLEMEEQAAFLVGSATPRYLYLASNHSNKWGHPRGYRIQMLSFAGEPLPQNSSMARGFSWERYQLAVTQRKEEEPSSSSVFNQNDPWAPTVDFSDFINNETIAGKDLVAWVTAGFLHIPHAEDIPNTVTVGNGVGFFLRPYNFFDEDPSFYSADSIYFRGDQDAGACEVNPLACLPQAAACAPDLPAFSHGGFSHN
As to the kind of experiment: Human Semicarbazide-Sensitive Amine Oxidase (SSAO) Assay. The class given is biochemical. Conditions: recombinant enzyme, 30 minutes preincubation at 37° C., benzylamine substrate, Amplex Ultra Red/HRP fluorescence. How it is done:
Compounds were dissolved in DMSO to provide a Concentration Response Curve (CRC; at 500 times the final concentration) over a range of 6-10 dilutions.
Recombinant Human SSAO/VAP-1/AOC3 (R&D systems; Catalog #3957-AO) was used to screen compound potency in vitro, according to previously described methods (J Pharmacol Exp Ther. 2013 November; 347(2):365-74). SSAO enzyme was suspended in 50 mM HEPES buffer to a working concentration of 2.5 μg/ml and 40 μL of this enzyme mixture was then added to each well of a F16 Black Maxisorp 96 well Plate (Nunc, Catalog #475515). Ten microliters of each test compound (at 5 times the final concentration) were added to each well, resulting in a final well volume of 50 μL of the enzyme and inhibitor mixture. The compounds were preincubated with the enzyme for 30 minutes at 37° C., prior to the addition of a 40 μL volume of Amplex Ultra Red (125 uM AUR; Molecular Probes, Catalog # A36006)/Horseradish peroxidase (2.5 U/ml HRP; Sigma-Aldrich Catalog # P8375) oxidase detection reagent containing cytochrome C ([…]; Sigma-Aldrich Catalog # C7752). Cytochrome C was included in the AUR/HRP detection mixture to reduce the background fluorescence that can occur via the spontaneous redox reaction between AUR and HRP. The SSAO enzyme reaction was then initiated by adding 10 μL of the SSAO substrate, benzylamine (Sigma-Aldrich Catalog # B5136), and SSAO activity was measured in kinetic mode over a 30-120 minute sampling period (excit. 544 nm; emit 590 nm; cut off 570 nm; medium gain) to obtain IC50 values for enzyme activity in each treatment well.

Where a name gives a salt, the structure may show the parent alone.

For the molecule `NC/C(=C\F)COc1ccc(C23CCC(C(=O)NC4(c5ccccc5)CCOCC4)(CC2)CC3)cc1` [Compound 2.69, (E)-4-(4-((2-(aminomethyl)-3-fluoroallyl)oxy)phenyl)-N-(4-phenyltetrahydro-2H-pyran-4-yl)bicyclo[2.2.2]octane-1-carboxamide], the IC50 (in general, the concentration at which inhibition is half-maximal) was not above 10 nM. For `NC/C(=C\F)COc1ccc(C23CCC(C(=O)NC4CCOC5(CCC5)C4)(CC2)CC3)cc1` (centres unmarked) [Compound 2.154, (E)-4-(4-((2-(aminomethyl)-3-fluoroallyl)oxy)phenyl)-N-(5-oxaspiro[3.5]nonan-8-yl)bicyclo[2.2.2]octane-1-carboxamide] the value was not above 10 nM.

With `NC/C(=C\F)COc1ccc(C23CCC(C(=O)NCc4ccnnc4)(CC2)CC3)cc1` [Compound 2.139, (E)-4-(4-((2-(aminomethyl)-3-fluoroallyl)oxy)phenyl)-N-(pyridazin-4-ylmethyl)bicyclo[2.2.2]octane-1-carboxamide], the IC50 is not above 10 nM.

As for `NC/C(=C\F)COc1ccc(C23CCC(C(N)=O)(CC2)CC3)cc1` [Compound 2.10, (E)-4-(4-((2-(aminomethyl)-3-fluoroallyl)oxy)phenyl) bicyclo[2.2.2]octane-1-carboxamide], the IC50 is not above 10 nM.

For `NC/C(=C\F)COc1ccc(C23CCC(C(=O)NCCOC4CCC4)(CC2)CC3)cc1` [Compound 2.120, (E)-4-(4-((2-(aminomethyl)-3-fluoroallyl)oxy)phenyl)-N-(2-cyclobutoxyethyl)bicyclo [2.2.2]octane-1-carboxamide], the IC50 was not above 10 nM. Then `COC[C@H]1C[C@@H](NC(=O)C23CCC(c4ccc(OC/C(=C/F)CN)cc4)(CC2)CC3)C1` [Compound 2.124, 4-(4-(((E)-2-(aminomethyl)-3-fluoroallyl)oxy)phenyl)-N-((1s,3s)-3-(methoxymethyl)cyclobutyl) bicyclo[2.2.2]octane-1-carboxamide], with not above 10 nM; and `NC/C(=C\F)COc1ccc(C23CCC(C(=O)NC4(CO)CCOCC4)(CC2)CC3)cc1` [Compound 2.72, (E)-4-(4-((2-(aminomethyl)-3-fluoroallyl)oxy)phenyl)-N-(4-(hydroxymethyl)tetrahydro-2H-pyran-4-yl)bicyclo[2.2.2]octane-1-carboxamide], with not above 10 nM.

As to `CNC(=O)C12CCCC(c3ccc(OC/C(=C/F)CN)cc3)(CC1)C2` (centres unmarked) [Compound 5, 5-(4-(((E)-2-(Aminomethyl)-3-fluoroallyl)oxy)phenyl)-N-methylbicyclo[3.2.1]octane-1-carboxamide Hydrochloride], the IC50 is not above 10 nM.

Turning to `NC/C(=C\F)COc1ccc(C23CCC(C(=O)N4CC[C@@H]4CO)(CC2)CC3)cc1` [Compound 2.78, (R,E)-(4-(4-((2-(aminomethyl)-3-fluoroallyl)oxy)phenyl)bicyclo [2.2.2]octan-1-yl)(2-(hydroxymethyl)azetidin-1-yl)methanone], the 50% inhibitory concentration (IC50) was not above 10 nM. For `CNC(=O)COC12CCC(c3ccc(OC/C(=C/F)CN)cc3)(CC1)CC2` [Compound 8, (E)-2-((4-(4-((2-(aminomethyl)-3-fluoroallyl)oxy)phenyl)bicyclo[2.2.2]octan-1-yl)oxy)-N-methylacetamide] the value was not above 10 nM; for `N#CC1CCCC1NC(=O)C12CCC(c3ccc(OC/C(=C/F)CN)cc3)(CC1)CC2` (centres unmarked) [Compound 2.156, (E)-4-(4-((2-(aminomethyl)-3-fluoroallyl)oxy)phenyl)-N-(2-cyanocyclopentyl)bicyclo[2.2.2] octane-1-carboxamide], not above 10 nM; for `COCC(C)(C)CNC(=O)C12CCC(c3ccc(OC/C(=C/F)CN)cc3)(CC1)CC2` [Compound 2.132, (E)-4-(4-((2-(aminomethyl)-3-fluoroallyl)oxy)phenyl)-N-(3-methoxy-2,2-dimethylpropyl)bicyclo[2.2.2] octane-1-carboxamide], not above 10 nM.

For `NC/C(=C\F)COc1ccc(C23CCC(C(=O)Nc4ccncn4)(CC2)CC3)cc1` [Compound 2.122, (E)-4-(4-((2-(aminomethyl)-3-fluoroallyl)oxy)phenyl)-N-(pyrimidin-4-yl)bicyclo[2.2.2]octane-1-carboxamide], the IC50 was not above 10 nM. Then `NC/C(=C\F)COc1ccc(C23CCC(C(=O)NCCCCl)(CC2)CC3)cc1` [Compound 2.26, (E)-4-(4-((2-(aminomethyl)-3-fluoroallyl)oxy)phenyl)-N-(3-chloropropyl)bicyclo[2.2.2] octane-1-carboxamide], with not above 10 nM; and `NC/C(=C\F)COc1ccc(C23CCC(C(=O)N(CCO)C4CC4)(CC2)CC3)cc1` [Compound 2.59, (E)-4-(4-((2-(aminomethyl)-3-fluoroallyl)oxy)phenyl)-N-cyclopropyl-N-(2-hydroxyethyl)bicyclo[2.2.2] octane-1-carboxamide], with not above 10 nM. Then `CNC(=O)C12CCC(c3ccc(OC/C(=C/F)CN)cc3)(CC1)CC2` [Compound 2.03, (E)-4-(4-((2-(aminomethyl)-3-fluoroallyl)oxy)phenyl)-N-methylbicyclo[2.2.2]octane-1-carboxamide Hydrochloride], with not above 10 nM.

With `NC/C(=C\F)COc1ccc(C23CCC(NC(=O)CCO)(CC2)CC3)cc1` [Compound 7.01, (E)-N-(4-(4-((2-(aminomethyl)-3-fluoroallyl)oxy)phenyl)bicyclo [2.2.2]octan-1-yl)-3-hydroxypropanamide], the IC50 is not above 10 nM.

As to `NC/C(=C\F)COc1ccc(C23CCC(C(=O)NC4CCC5(CC4)COC5)(CC2)CC3)cc1` [Compound 2.106, (E)-4-(4-((2-(aminomethyl)-3-fluoroallyl)oxy)phenyl)-N-(2-oxaspiro[3.5]nonan-7-yl)bicyclo[2.2.2]octane-1-carboxamide], the IC50 was not above 10 nM. Then `NC/C(=C\F)COc1ccc(C23CCC(C(=O)Nc4ncco4)(CC2)CC3)cc1` [Compound 2.76, (E)-4-(4-((2-(aminomethyl)-3-fluoroallyl)oxy)phenyl)-N-(oxazol-2-yl)bicyclo[2.2.2]octane-1-carboxamide], with not above 10 nM. For `CO[C@@H]1CCCC(NC(=O)C23CCC(c4ccc(OC/C(=C/F)CN)cc4)(CC2)CC3)C1` (stereo in doubt) [Compound 2.115, 4-(4-(((E)-2-(aminomethyl)-3-fluoroallyl)oxy)phenyl)-N-((1S,3R)-3-methoxycyclohexyl)bicyclo [2.2.2]octane-1-carboxamide] the value was not above 10 nM; for `COC(=O)C1CCN(C(=O)C23CCC(c4ccc(OC/C(=C/F)CN)cc4)(CC2)CC3)CC1` [Compound 2.12, (E)-methyl 1-(4-(4-((2-(aminomethyl)-3-fluoroallyl)oxy)phenyl)bicyclo[2.2.2]octane-1-carbonyl)piperidine-4-carboxylate], not above 10 nM. Then `NC/C(=C\F)COc1ccc(C23CCC(C(=O)NC4[C@H]5COC[C@H]45)(CC2)CC3)cc1` (stereo in doubt) [Compound 2.66, 4-(4-(((E)-2-(aminomethyl)-3-fluoroallyl)oxy)phenyl)-N-((1R,5S,6s)-3-oxabicyclo[3.1.0]hexan-6-yl)bicyclo[2.2.2]octane-1-carboxamide], with not above 10 nM. For `NC/C(=C\F)COc1ccc(C23CCC(C(=O)NC4CC5(CCOCC5)C4)(CC2)CC3)cc1` [Compound 2.114, (E)-4-(4-((2-(aminomethyl)-3-fluoroallyl)oxy)phenyl)-N-(7-oxaspiro[3.5]nonan-2-yl)bicyclo[2.2.2]octane-1-carboxamide], the IC50 is not above 10 nM.

These data come from patent publication US20200181104A1, “SSAO INHIBITORS AND USES THEREOF” (METACRINE, INC., priority 2018, published 2020).
